# In paper PMC4298791 (Angewandte Chemie (International Ed. in English), 2014):
# Where two headings read alike, the source gives them in different places.
# Assays:
# CREBBP bromodomain [1] = target: T1, CREBBP bromodomain (Homo sapiens, UniProt Q92793); assay: AlphaScreen peptide displacement assay; type: binding
# T1 construct: amplify the bromodomain region of the; made in house
# Description: AlphaScreen Peptide Displacement Assay: Bromodomain AlphaScreen assays were carried out as
# previously described.11,34 All experiments were carried out in duplicate and, within a table, on the same plate. […]
# BRPF3 = target: T2, BRPF3 (Homo sapiens, UniProt Q9ULD4); assay: Differential scanning fluorimetry (ΔTm); details: read-out: ΔTm BRPF3
# T2 sequence (Q9ULD4 589-693 limits assumed): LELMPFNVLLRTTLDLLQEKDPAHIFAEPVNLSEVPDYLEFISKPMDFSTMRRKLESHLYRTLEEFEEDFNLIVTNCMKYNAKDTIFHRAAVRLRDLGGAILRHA
# BAZ2B = target: T3, BAZ2B (Homo sapiens, UniProt Q9UIF8); assay: Differential scanning fluorimetry (ΔTm); details: read-out: ΔTm BAZ2B
# T3 sequence (Q9UIF8 2060-2164 limits assumed): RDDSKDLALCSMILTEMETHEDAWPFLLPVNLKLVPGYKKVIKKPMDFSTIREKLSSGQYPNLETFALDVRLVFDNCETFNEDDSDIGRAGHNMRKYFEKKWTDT
# BRD9 = target: T4, BRD9 (Homo sapiens, UniProt Q9H8M2); assay: Differential scanning fluorimetry (ΔTm); details: read-out: ΔTm BRD9
# T4 sequence (Q9H8M2 136-240 limits assumed): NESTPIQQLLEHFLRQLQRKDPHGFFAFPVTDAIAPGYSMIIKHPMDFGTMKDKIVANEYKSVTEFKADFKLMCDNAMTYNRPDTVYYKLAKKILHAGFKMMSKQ
# CREBBP = target: T5, CREBBP (Homo sapiens, UniProt Q92793); assay: Differential scanning fluorimetry (ΔTm); type: binding; details: DSF; protein 2 µM, compound 10 µM
# T5 construct: amplify the bromodomain region of the; made in house
# LOC93349A = LOC93349A (Homo sapiens, UniProt Q9H930); assay: Differential scanning fluorimetry (ΔTm); details: read-out: ΔTm LOC93349A
# Description: (§7) Differential Scanning Fluorimetry: Bromodomain ΔTm assay was performed as reported previously,34 with protein at a final concentration of 2 µM and compound at 10 µM.
# PB1(1) = PB1(1) (Homo sapiens, UniProt Q86U86); assay: Differential scanning fluorimetry (ΔTm); details: read-out: ΔTm PB1(1)
# Description: as §7
# BRD4(1) = BRD4(1) (Homo sapiens, UniProt O60885); assay: Isothermal titration calorimetry (ITC); type: binding; details: 15 °C
# Description: (§1) Isothermal Titration Calorimetry (ITC): Experiments were carried out on a VP-ITC titration microcalorimeter from MicroCal™ , LLC (Northampton, MA) with a cell volume of 1.4189 ml and a 250 µl microsyringe equipped with a ThermoVac module.
# (§2) The microsyringe was loaded with a solution of the protein sample (200-500 µM protein in ITC buffer) and was carefully inserted into the calorimetric cell which was filled with an amount of the ligand ([…], 20-30 µM in ITC buffer). The system […]
# (§3) applied. All titrations were conducted using an initial control injection of 2 µl followed by up to 34 identical injections of 8 µl with a duration of 4 sec per injection and a spacing of 250 sec between injections. The titration experiments were designed in such a fashion, as to ensure complete saturation of the enzymes before […]
# (§4) corrected for protein heats of dilution (measured on separate experiments by titrating the proteins into ITC buffer) and deconvoluted using the MicroCal™ Origin software supplied with the instrument to yield enthalpies of binding (∆H) and binding constants (KB) in the same fashion to that previously described in detail by Wiseman and coworkers.35 Thermodynamic parameters were calculated using the basic equation of thermodynamics (∆G = ∆H − T∆S = −RTlnKB, where ∆G, ∆H and ∆S are the changes in free energy, enthalpy […]
# (§5) and entropy of binding respectively).
# (§6) MicroCal™ Origin software package.
# CREBBP bromodomain [2] = target: T1, CREBBP bromodomain; assay: Isothermal titration calorimetry (ITC); type: binding; details: 15 °C
# Description: as §1, §2, §3, §4, §5, §6
# [3] = test system: GFP chimerized to multimerized CREBBP bromodomains in U2OS cells; assay: Fluorescence recovery after photobleaching (FRAP) assay; type: cell-based
# Description: To determine the utility of (R)-2 in a cellular setting a FRAP assay was conducted.
# The bleached area is indicated by a red circle. B) Half times of fluorescence recovery (t1/2) of U2OS cells expressing green fluorescent protein (GFP) chimerized to multimerized CREBBP bromodomains with or without 2.5 μM SAHA (indicated by †).
# CREBBP bromodomain from chromatin. A) Time dependence of fluorescent recovery in the bleached area of U2OS cells expressing GFP chimerised to multimerised CREBBP bromodomains. Curves represent the means at each time point of 15 cells in each group (see Figure 3A for representative images of cell nuclei). B) Half times of fluorescence recovery (t½) of cells expressing GFP chimerised to multimerised CREBBP bromodomains. Bars represent the mean t½ calculated from individual recovery curves of 15 cells per group. * […]
# as §5
# MicroCal™ Origin software package. […]
# crystallization robot (TTP Labtech, Royston UK).
# 50+100 nl). […] All crystallizations were carried out […]
# followed by manual building in COOT42.
# PCAF = target: T6, PCAF (Homo sapiens, UniProt Q92831); assay: Differential scanning fluorimetry (ΔTm); details: read-out: ΔTm PCAF
# T6 sequence (Q92831 723-827 limits assumed): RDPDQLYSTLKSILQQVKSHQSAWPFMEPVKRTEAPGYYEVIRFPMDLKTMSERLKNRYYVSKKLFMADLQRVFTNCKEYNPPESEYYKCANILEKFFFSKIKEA
# TIF1α = target: T7, TIF1α (Homo sapiens, UniProt O15164); assay: Differential scanning fluorimetry (ΔTm); details: read-out: ΔTm TIF1α
# T7 sequence (O15164 899-1004 limits assumed): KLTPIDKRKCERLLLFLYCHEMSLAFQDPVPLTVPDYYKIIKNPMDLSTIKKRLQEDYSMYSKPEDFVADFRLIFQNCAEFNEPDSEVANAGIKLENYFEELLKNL
# CREBBP bromodomain [4] = target: T1, CREBBP bromodomain; parameters: method as in PMID 21804994, PMID 21851057; details: cited from earlier work
# [5] = peptide and protein concentration = 25 nM, range in parentheses, read-out: IC50/nM vs CREBBP
# T1 sequence (Q92793 1085-1192 limits assumed): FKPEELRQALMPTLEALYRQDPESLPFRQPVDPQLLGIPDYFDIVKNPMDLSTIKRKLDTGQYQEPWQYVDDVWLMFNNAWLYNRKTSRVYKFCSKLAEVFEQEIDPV
# PB1(1), sequence (Q86U86 41-151 limits assumed): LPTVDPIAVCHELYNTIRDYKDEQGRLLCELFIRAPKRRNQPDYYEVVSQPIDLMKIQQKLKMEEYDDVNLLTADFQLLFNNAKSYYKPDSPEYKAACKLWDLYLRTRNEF
# LOC93349A, sequence (Q9H930 467-570 limits assumed): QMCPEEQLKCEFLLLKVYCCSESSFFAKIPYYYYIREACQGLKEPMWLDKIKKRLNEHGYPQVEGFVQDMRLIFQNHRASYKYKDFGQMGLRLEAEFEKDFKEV
# T5 sequence (Q92793 1085-1192 limits assumed): as the sequence (Q92793 1085-1192 limits assumed) above
smiles,measurement,setting,value
C[C@H]1Nc2c(cccc2C(=O)NCCCN2CCCc3ccccc32)NC1=O [(R)-1],IC50,CREBBP bromodomain [1]; [5],758 nM
same,IC50,CREBBP bromodomain [1]; read-out: CREBBP IC50,760 nM
COc1ccc2c(c1)N(CCCNC(=O)c1cccc3c1N[C@H](C)C(=O)N3)CCC2 [(R)-2],ΔTm at 10 µM,BRPF3,0.5 °C
same,ΔTm at 10 µM,BAZ2B,< 0.5 °C
same,ΔTm at 10 µM,BRD9,< 1.1 °C
same,ΔTm at 10 µM,CREBBP,5.4 °C
same,ΔTm at 10 µM,LOC93349A,0.3 °C
same,ΔTm at 10 µM,PB1(1),< 0.1 °C
same,−TΔS of binding to BRD4,BRD4(1),-1.36 kcal/mol
same,ΔH of binding to BRD4,BRD4(1); error = error in fitting,-6.42 ± 0.12 kcal/mol
same,TΔS of binding to CREBBP,CREBBP bromodomain [2],-2.40 kcal/mol
same,ΔH of binding to CREBBP,CREBBP bromodomain [2]; error = error in fitting,-6.12 ± 0.04 kcal/mol
same,half time of fluorescence recovery (t1/2) compared to wild-type cells,"[3]; 1, 5, 10 µM (R)-2 in presence of 2.5 μM SAHA",dose-dependently reduced
same,displacement of CREBBP bromodomain from chromatin (FRAP),"[3]; 1, 5, 10 µM, with 2.5 μM SAHA",can displace the CREBBP bromodomain from chromatin
same,ΔTm at 10 µM,PCAF,0 °C
same,ΔTm at 10 µM,TIF1α,0.7 °C
C[C@H]1Nc2c(cccc2C(=O)NCCCN2CCOc3ccccc32)NC1=O [(R)-5],IC50,CREBBP bromodomain [1]; [5],549 nM
COc1ccc2c(c1)CCCN2CCCNC(=O)c1cccc2c1N[C@H](C)C(=O)N2 [(R)-6],IC50,CREBBP bromodomain [1]; [5],1410 nM
COc1ccc2c(c1)N(CCCNC(=O)c1cc(F)cc3c1N[C@H](C)C(=O)N3)CCC2 [(R)-7],IC50,CREBBP bromodomain [1]; [5],1530 nM
COc1ccc2c(c1)N(CCCNC(=O)c1c(F)ccc3c1N[C@H](C)C(=O)N3)CCC2 [(R)-8],IC50,CREBBP bromodomain [1]; [5],2550 nM
C[C@@H]1Nc2c(cccc2C(=O)NCCCN2CCCc3ccccc32)NC1=O [(S)-1],IC50,CREBBP bromodomain [1]; [5],6870 nM
"CN1CCCC1=O [N-methyl-2-pyrrolidone (NMP), N-methyl-2-pyrrolidone]",IC50,CREBBP bromodomain [4]; AlphaScreen,1900 µM
same,ligand efficiency,CREBBP bromodomain [4]; from AlphaScreen IC50 vs CREBBP bromodomain,0.54
CC1Oc2c(cccc2C(=O)NCCN2CCc3ccccc32)NC1=O (stereo not shown) [compound 3],IC50,CREBBP bromodomain [1]; read-out: CREBBP IC50,77000 nM
CC1Oc2c(cccc2C(=O)NCCCN2CCCc3ccccc32)NC1=O (stereo not shown) [compound 4],IC50,CREBBP bromodomain [1]; read-out: CREBBP IC50,51000 nM
